In the supplement of paper PMC4862054:

Tests used:
Conditions in all cases: incubation time: 72 h
CAL-85-1 [1] = test: normalised viability (% of control), CellTiter-Blue; higher = more viable cells (about 100 = DMSO control)
Procedure, shortened: (§1)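 Breast cancer cell lines in 20 µl suspension were seeded onto 384-well plates pre-loaded with compound dissolved in 5 µl medium, then incubated 72 h. CellTiter-Blue reagent (2.5 µl) was added for 2 h at 37 °C and fluorescence read at 560/590 nm. Each plate was normalised to vehicle (100) and a positive kill control (0), with Z'-factor quality control. The value is normalised viability at one listed concentration of the series.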

DU-4475 [2] = test: as above
Procedure, shortened: as §1

CAL-51 [3] = test: as above
Procedure, shortened: as §1

HDQ-P1 [4] = test: as above
Procedure, shortened: as §1

CAL-148 [5] = test: as above
Procedure, shortened: as §1

MDA-MB-453 [6] = test: as above
Procedure, shortened: as §1

MDA-MB-468 = test: normalised response (% of control), CellTox Green; higher = less cell death (100 = DMSO, 0 = benzethonium chloride kill control)
Procedure, shortened: (§2)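 Compound was dispensed into 384-well plates at 5 concentrations in 10-fold steps spanning a 10,000-fold range specific to that compound. Breast cancer cell lines were added as 20 µl suspension and left for 72 h before CellTox Green fluorescence (485/520 nm) and then CellTiter-Glo luminescence, read after 10 min at room temperature. Each reported value is the normalised signal at one concentration, with 0.1 % DMSO set at 100 and a positive kill control at 0 on each plate.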

HCC1937 = test: as above
Procedure, shortened: as §2

MFM-223 [7] = test: as above
Procedure, shortened: as §2

CAL-85-1 [8] = test: as above
Procedure, shortened: as §2

CAL-120 = test: as above
Procedure, shortened: as §2

MCF-10A [9] = test: as above
Procedure, shortened: as §2

DU-4475 [10] = test: as above
Procedure, shortened: as §2

CAL-51 [11] = test: as above
Procedure, shortened: as §2

BT-474 = test: as above
Procedure, shortened: as §2

Hs578T [12] = test: as above
Procedure, shortened: as §2

MDA-MB-436 [13] = test: as above
Procedure, shortened: as §2

HDQ-P1 [14] = test: as above
Procedure, shortened: as §2

MDA-MB-231 = test: as above
Procedure, shortened: as §2

CAL-148 [15] = test: as above
Procedure, shortened: as §2

HCC1599 [16] = test: as above
Procedure, shortened: as §2

MDA-MB-453 [17] = test: as above
Procedure, shortened: as §2

BT-549 = test: as above
Procedure, shortened: as §2

MFM-223 [18] = test: normalised response (% of control), CellTiter-Glo; higher = more viable cells (100 = DMSO, 0 = benzethonium chloride kill control)
Procedure, shortened: as §2

MCF-10A [19] = test: as above
Procedure, shortened: as §2

Hs578T [20] = test: as above
Procedure, shortened: as §2

MDA-MB-436 [21] = test: as above
Procedure, shortened: as §2

CAL-148 [22] = test: as above
Procedure, shortened: as §2

HCC1599 [23] = test: as above
Procedure, shortened: as §2

Structure (SMILES)	normalised viability (CAL-85-1 [1]) [%]	normalised viability (DU-4475 [2]) [%]	normalised viability (CAL-51 [3]) [%]	normalised viability (HDQ-P1 [4]) [%]	normalised viability (CAL-148 [5]) [%]	normalised viability (MDA-MB-453 [6]) [%]	normalised response (MDA-MB-468) [%]	normalised response (HCC1937) [%]	normalised response (MFM-223 [7]) [%]	normalised response (CAL-85-1 [8]) [%]	normalised response (CAL-120) [%]	normalised response (MCF-10A [9]) [%]	normalised response (DU-4475 [10]) [%]	normalised response (CAL-51 [11]) [%]	normalised response (BT-474) [%]	normalised response (Hs578T [12]) [%]	normalised response (MDA-MB-436 [13]) [%]	normalised response (HDQ-P1 [14]) [%]	normalised response (MDA-MB-231) [%]	normalised response (CAL-148 [15]) [%]	normalised response (HCC1599 [16]) [%]	normalised response (MDA-MB-453 [17]) [%]	normalised response (BT-549) [%]	normalised response (MFM-223 [18]) [%]	normalised response (MCF-10A [19]) [%]	normalised response (Hs578T [20]) [%]	normalised response (MDA-MB-436 [21]) [%]	normalised response (CAL-148 [22]) [%]	normalised response (HCC1599 [23]) [%]
COc1cc([C@@H]2c3cc4c(cc3[C@@H](O[C@@H]3O[C@@H]5CO[C@@H](C)O[C@H]5[C@H](O)[C@H]3O)[C@H]3COC(=O)[C@H]23)OCO4)cc(OC)c1O [Etoposide] (10000 nM)	63.1	4.57	18.4	62.6	31.7	61.4	-48	106	103	34.3	75.7	108	78.4	36.8	97.3	88.2	80.9	109	61	49.6	91	109	85.4	90.8	87.1	67.3	36.6	39.9	11.8
CN(N=O)C(=O)N[C@@H](C=O)[C@@H](O)[C@H](O)[C@H](O)CO [Streptozocin] (10000 nM)	91.1	92.6	101	122	105	99.1	64.1	71.6	88.1	80.7	110	116	98.1	102	105	136	68.7	110	106	107	98.6	84.9	96.1	106	110	109	97.2	107	92.5
CCC1=C[C@@H]2CN(C1)Cc1c([nH]c3ccccc13)[C@@](C(=O)OC)(c1cc3c(cc1OC)N(C)[C@H]1[C@@](O)(C(=O)OC)[C@H](OC(C)=O)[C@]4(CC)C=CCN5CC[C@]31[C@@H]54)C2 [Vinorelbine] (10000 nM)	44.2	9.67	11.5	38.9	30.3	29.4	5.11	83.1	42.7	71	75.5	41.4	90.9	7	59.1	-16.6	70.8	97.8	-5.22	80.7	70.8	90.3	43.6	39.6	78.3	15.9	24.5	49.6	4.45
